According to ChEMBL document CHEMBL1649524, “Resistance selection studies comparing the activity of razupenem (PTZ601) to vancomycin and linezolid against eight methicillin-resistant and two methicillin-susceptible Staphylococcus aureus strains” (2009):
Converted amounts (≈) assume the structure as drawn.

Tests used:
Assay type in all cases: functional
[1] = system: Staphylococcus aureus; test: Antimicrobial activity against vancomycin-resistant Staphylococcus aureus 509 measured on day 40 by macrodilution method
[2] = system: Staphylococcus aureus; test: Antimicrobial activity against methicillin-resistant Staphylococcus aureus 525 measured after 10 antibiotic-free subculturing by macrodilution method
[3] = system: Staphylococcus aureus; test: Antimicrobial activity against vancomycin-resistant Staphylococcus aureus 509 measured on day 15 by macrodilution method; details: Staphylococcus aureus, 509, 360 h
[4] = system: Staphylococcus aureus; test: Antimicrobial activity against methicillin-susceptible Staphylococcus aureus 540 measured on day 10 by macrodilution method; details: Staphylococcus aureus, 540, 240 h
[5] = system: Staphylococcus aureus; test: Antimicrobial activity against heterogeneous vancomycin-intermediate Staphylococcus aureus 168 measured on day 5 by macrodilution method; details: Staphylococcus aureus, 168, 120 h
[6] = system: Staphylococcus aureus; test: Antimicrobial activity against methicillin-susceptible Staphylococcus aureus 540 measured on day 15 by macrodilution method; details: Staphylococcus aureus, 540, 360 h
[7] = system: Staphylococcus aureus; test: Antimicrobial activity against heterogeneous vancomycin-intermediate Staphylococcus aureus 168 measured on day 10 by macrodilution method; details: Staphylococcus aureus, 168, 240 h
[8] = system: Staphylococcus aureus; test: Antimicrobial activity against vancomycin-intermediate Staphylococcus aureus 1287 measured on day 20 by macrodilution method; details: Staphylococcus aureus, 1287, 480 h
[9] = system: Staphylococcus aureus; test: Antimicrobial activity against methicillin-resistant Staphylococcus aureus 547 measured on day 25 by macrodilution method; details: Staphylococcus aureus, 547, 600 h
[10] = system: Staphylococcus aureus; test: Antimicrobial activity against heterogeneous vancomycin-intermediate Staphylococcus aureus 168 by macrodilution method
[11] = system: Staphylococcus aureus; test: Antimicrobial activity against vancomycin-intermediate Staphylococcus aureus 555 measured on day 35 by macrodilution method
[12] = system: Staphylococcus aureus; test: Antimicrobial activity against methicillin-susceptible Staphylococcus aureus 543 measured on day 30 by macrodilution method
[13] = system: Staphylococcus aureus; test: Antimicrobial activity against heterogeneous vancomycin-intermediate Staphylococcus aureus 168 measured on day 30 by macrodilution method
[14] = system: Staphylococcus aureus; test: Antimicrobial activity against methicillin-resistant Staphylococcus aureus 547 measured on day 20 by macrodilution method; details: Staphylococcus aureus, 547, 480 h
[15] = system: Staphylococcus aureus; test: Antimicrobial activity against methicillin-susceptible Staphylococcus aureus 540 measured on day 25 by macrodilution method; details: Staphylococcus aureus, 540, 600 h
[16] = system: Staphylococcus aureus; test: Antimicrobial activity against vancomycin-intermediate Staphylococcus aureus 1287 measured on day 35 by macrodilution method
[17] = system: Staphylococcus aureus; test: Antimicrobial activity against methicillin-resistant Staphylococcus aureus 547 measured on day 50 by macrodilution method
[18] = system: Staphylococcus aureus; test: Antimicrobial activity against vancomycin-resistant Staphylococcus aureus 510 measured on day 20 by macrodilution method; details: Staphylococcus aureus, 510, 480 h
[19] = system: Staphylococcus aureus; test: Antimicrobial activity against heterogeneous vancomycin-intermediate Staphylococcus aureus 873 measured on day 45 by macrodilution method
[20] = system: Staphylococcus aureus; test: Antimicrobial activity against heterogeneous vancomycin-intermediate Staphylococcus aureus 168 measured on day 40 by macrodilution method
[21] = system: Staphylococcus aureus; test: Antimicrobial activity against vancomycin-resistant Staphylococcus aureus 509 measured on day 50 by macrodilution method
[22] = system: Staphylococcus aureus; test: Antimicrobial activity against vancomycin-intermediate Staphylococcus aureus 555 measured on day 50 by macrodilution method
[23] = system: Staphylococcus aureus; test: Antimicrobial activity against methicillin-susceptible Staphylococcus aureus 540 by macrodilution method
[24] = system: Staphylococcus aureus; test: Antimicrobial activity against methicillin-resistant Staphylococcus aureus 525 measured on day 35 by macrodilution method
[25] = system: Staphylococcus aureus; test: Antimicrobial activity against vancomycin-intermediate Staphylococcus aureus 555 measured on day 20 by macrodilution method; details: Staphylococcus aureus, 555, 480 h
[26] = system: Staphylococcus aureus; test: Antimicrobial activity against methicillin-resistant Staphylococcus aureus 525 measured on day 25 by macrodilution method; details: Staphylococcus aureus, 525, 600 h
[27] = system: Staphylococcus aureus; test: Antimicrobial activity against vancomycin-intermediate Staphylococcus aureus 1287 measured on day 30 by macrodilution method
[28] = system: Staphylococcus aureus; test: Antimicrobial activity against heterogeneous vancomycin-intermediate Staphylococcus aureus 873 measured on day 40 by macrodilution method
[29] = system: Staphylococcus aureus; test: Antimicrobial activity against methicillin-resistant Staphylococcus aureus 547 measured after 10 antibiotic-free subculturing by macrodilution method
[30] = system: Staphylococcus aureus; test: Antimicrobial activity against vancomycin-resistant Staphylococcus aureus 510 after 50 passages by macrodilution method
[31] = system: Staphylococcus aureus; test: Antimicrobial activity against heterogeneous vancomycin-intermediate Staphylococcus aureus 873 measured on day 25 by macrodilution method; details: Staphylococcus aureus, 873, 600 h
[32] = system: Staphylococcus aureus; test: Antimicrobial activity against vancomycin-intermediate Staphylococcus aureus 1287 measured on day 10 by macrodilution method; details: Staphylococcus aureus, 1287, 240 h
[33] = system: Staphylococcus aureus; test: Antimicrobial activity against heterogeneous vancomycin-intermediate Staphylococcus aureus 873 measured on day 5 by macrodilution method; details: Staphylococcus aureus, 873, 120 h
[34] = system: Staphylococcus aureus; test: Antimicrobial activity against methicillin-resistant Staphylococcus aureus 525 measured on day 30 by macrodilution method
[35] = system: Staphylococcus aureus; test: Antimicrobial activity against methicillin-susceptible Staphylococcus aureus 543 by macrodilution method
[36] = system: Staphylococcus aureus; test: Antimicrobial activity against methicillin-susceptible Staphylococcus aureus 540 measured on day 50 by macrodilution method
[37] = system: Staphylococcus aureus; test: Antimicrobial activity against vancomycin-intermediate Staphylococcus aureus 1287 measured on day 45 by macrodilution method
[38] = system: Staphylococcus aureus; test: Antimicrobial activity against methicillin-susceptible Staphylococcus aureus 543 measured on day 5 by macrodilution method; details: Staphylococcus aureus, 543, 120 h
[39] = system: Staphylococcus aureus; test: Antimicrobial activity against methicillin-resistant Staphylococcus aureus 547 measured on day 30 by macrodilution method
[40] = system: Staphylococcus aureus; test: Antimicrobial activity against vancomycin-resistant Staphylococcus aureus 509 measured after 10 antibiotic-free subculturing by macrodilution method
[41] = system: Staphylococcus aureus; test: Antimicrobial activity against methicillin-susceptible Staphylococcus aureus 543 measured on day 20 by macrodilution method; details: Staphylococcus aureus, 543, 480 h
[42] = system: Staphylococcus aureus; test: Antimicrobial activity against vancomycin-intermediate Staphylococcus aureus 1287 by macrodilution method
[43] = system: Staphylococcus aureus; test: Antimicrobial activity against methicillin-resistant Staphylococcus aureus 525 measured on day 10 by macrodilution method; details: Staphylococcus aureus, 525, 240 h
[44] = system: Staphylococcus aureus; test: Antimicrobial activity against methicillin-resistant Staphylococcus aureus 547 measured on day 5 by macrodilution method; details: Staphylococcus aureus, 547, 120 h
[45] = system: Staphylococcus aureus; test: Antimicrobial activity against vancomycin-intermediate Staphylococcus aureus 555 measured on day 5 by macrodilution method; details: Staphylococcus aureus, 555, 120 h
[46] = system: Staphylococcus aureus; test: Antimicrobial activity against heterogeneous vancomycin-intermediate Staphylococcus aureus 873 after 30 passages by macrodilution method
[47] = system: Staphylococcus aureus; test: Antimicrobial activity against methicillin-resistant Staphylococcus aureus 525 after 28 passages by macrodilution method
[48] = system: Staphylococcus aureus; test: Antimicrobial activity against methicillin-susceptible Staphylococcus aureus 540 measured on day 30 by macrodilution method
[49] = system: Staphylococcus aureus; test: Antimicrobial activity against heterogeneous vancomycin-intermediate Staphylococcus aureus 873 measured on day 50 by macrodilution method
[50] = system: Staphylococcus aureus; test: Antimicrobial activity against heterogeneous vancomycin-intermediate Staphylococcus aureus 873 measured on day 10 by macrodilution method; details: Staphylococcus aureus, 873, 240 h

How did the MIC [1] turn out when C[C@H]1C=C(c2csc(SC3=C(C(=O)O)N4C(=O)[C@H]([C@@H](C)O)[C@H]4[C@H]3C)n2)CN1 [RAZUPENEM] was run?
The MIC was 4 µg/mL (≈ 9.82 µM).

What about the MIC [2] of the same compound?
Its MIC is 8 µg/mL (≈ 19.6 µM).

And the MIC [3]?
Its MIC is 2 µg/mL (≈ 4.91 µM).

And the MIC [4]?
Its MIC is 0.016 µg/mL (≈ 0.0393 µM).

And the MIC [5]?
Its MIC is 4 µg/mL (≈ 9.82 µM).

And the MIC [6]?
The MIC was 0.03 µg/mL (≈ 0.0736 µM).

What about the MIC [7] of the same compound?
Its MIC is 4 µg/mL (≈ 9.82 µM).

And the MIC [8]?
The MIC was 0.5 µg/mL (≈ 1.23 µM).

And the MIC [9]?
Its MIC is 4 µg/mL (≈ 9.82 µM).

And the MIC [10]?
Its MIC is 4 µg/mL (≈ 9.82 µM).

And the MIC [11]?
Its MIC is 4 µg/mL (≈ 9.82 µM).

What about the MIC [12] of the same compound?
Its MIC is 8 µg/mL (≈ 19.6 µM).

And the MIC [13]?
Its MIC is 8 µg/mL (≈ 19.6 µM).

And the MIC [14]?
Its MIC is 4 µg/mL (≈ 9.82 µM).

And the MIC [15]?
Its MIC is 0.03 µg/mL (≈ 0.0736 µM).

What about the MIC [16] of the same compound?
Its MIC is 2 µg/mL (≈ 4.91 µM).

What about the MIC [17] of the same compound?
Its MIC is 16 µg/mL (≈ 39.3 µM).

What about the MIC [18] of the same compound?
Its MIC is 4 µg/mL (≈ 9.82 µM).

And the MIC [19]?
The MIC was 16 µg/mL (≈ 39.3 µM).

And the MIC [20]?
The MIC was 8 µg/mL (≈ 19.6 µM).

And the MIC [21]?
Its MIC is 4 µg/mL (≈ 9.82 µM).

What about the MIC [22] of the same compound?
The MIC was 16 µg/mL (≈ 39.3 µM).

And the MIC [23]?
The MIC was 0.016 µg/mL (≈ 0.0393 µM).

What about the MIC [24] of the same compound?
The MIC was 16 µg/mL (≈ 39.3 µM).

And the MIC [25]?
The MIC was 2 µg/mL (≈ 4.91 µM).

What about the MIC [26] of the same compound?
Its MIC is 4 µg/mL (≈ 9.82 µM).

What about the MIC [27] of the same compound?
The MIC was 16 µg/mL (≈ 39.3 µM).

What about the MIC [28] of the same compound?
Its MIC is 16 µg/mL (≈ 39.3 µM).

And the MIC [29]?
Its MIC is 0.125 µg/mL (≈ 0.307 µM).

What about the MIC [30] of the same compound?
The MIC was 4 µg/mL (≈ 9.82 µM).

And the MIC [31]?
Its MIC is 8 µg/mL (≈ 19.6 µM).

What about the MIC [32] of the same compound?
The MIC was 0.25 µg/mL (≈ 0.613 µM).

What about the MIC [33] of the same compound?
The MIC was 2 µg/mL (≈ 4.91 µM).

And the MIC [34]?
Its MIC is 8 µg/mL (≈ 19.6 µM).

What about the MIC [35] of the same compound?
Its MIC is 0.016 µg/mL (≈ 0.0393 µM).

What about the MIC [36] of the same compound?
Its MIC is 0.125 µg/mL (≈ 0.307 µM).

And the MIC [37]?
Its MIC is 2 µg/mL (≈ 4.91 µM).

What about the MIC [38] of the same compound?
Its MIC is 0.03 µg/mL (≈ 0.0736 µM).

What about the MIC [39] of the same compound?
Its MIC is 2 µg/mL (≈ 4.91 µM).

And the MIC [40]?
The MIC was 1 µg/mL (≈ 2.45 µM).

What about the MIC [41] of the same compound?
Its MIC is 0.03 µg/mL (≈ 0.0736 µM).

And the MIC [42]?
The MIC was 0.06 µg/mL (≈ 0.147 µM).

What about the MIC [43] of the same compound?
Its MIC is 4 µg/mL (≈ 9.82 µM).

And the MIC [44]?
The MIC was 0.5 µg/mL (≈ 1.23 µM).

What about the MIC [45] of the same compound?
The MIC was 1 µg/mL (≈ 2.45 µM).

What about the MIC [46] of the same compound?
The MIC was 16 µg/mL (≈ 39.3 µM).

And the MIC [47]?
The MIC was 16 µg/mL (≈ 39.3 µM).

And the MIC [48]?
Its MIC is 4 µg/mL (≈ 9.82 µM).

What about the MIC [49] of the same compound?
Its MIC is 16 µg/mL (≈ 39.3 µM).

And the MIC [50]?
Its MIC is 2 µg/mL (≈ 4.91 µM).
